Measured values as given in US20100311035A1, “Preservation solution for organs and biological tissues” (priority 2005, published 2010).

How the values were obtained:
[1] = system: Sprague-Dawley rat kidneys; assay: Cold storage of rat kidneys for 24 hours, transplantation, post-transplant serum creatinine; assay type: in vivo; conditions: component(s) added to Viaspan; kidneys preserved under static conditions for 24 hours at 4° C, then transplanted; serum creatinine measured hourly for 6 hours; control VIASP solution; FIG. 1
Description: Sprague-Dawley rat kidneys were recovered in the normal fashion and were exsanguinated and cooled to 4° C. Experimental components were added to the solution to test for improvements in post-transplant function (indicated by serum creatinine levels). Seven different solutions were prepared for comparison according to Table 1. […] The kidneys were preserved under static conditions for 24 hours with the respective solutions, and transplanted into recipient animals. Post-transplant serum creatinine (S. CREAT) was measured hourly for 6 hours.

Rat kidneys = assay: Machine perfusion of rat kidneys for 24 hours, transplantation, post-transplant serum creatinine; assay type: in vivo; conditions: component(s) added to Belzer solution; kidneys preserved under machine perfusion for 24 hours, then transplanted; serum creatinine measured hourly for 6 hours; control BELZ solution; FIG. 2
Description: Rat kidneys were recovered as above. Seven different solutions were prepared for comparison according to Table 2. […] The kidneys were preserved under machine perfusion for 24 hours with the respective solutions, and transplanted into recipient animals. Post-transplant serum creatinine (S. CREAT) was measured hourly for 6 hours.

SMILES	improvement in post-transplant function (indicated by serum creatinine levels) compared to the control [1]	improvement in post-transplant function (serum creatinine) compared to the control (Rat kidneys)
N=C(N)NCCC[C@H](N)C(=O)O [L-arginine]	Minimal, but statistically insignificant improvements	Minimal, but statistically insignificant improvements
CC(=O)N[C@@H](CS)C(=O)O [N-acetylcystein]	Minimal, but statistically insignificant improvements	Minimal, but statistically insignificant improvements
O=[N+]([O-])OCC(CO[N+](=O)[O-])O[N+](=O)[O-] [nitroglycerin]	Minimal, but statistically insignificant improvements	Minimal, but statistically insignificant improvements
CCCCC[C@H](O)/C=C/[C@H]1[C@H](O)CC(=O)[C@@H]1CCCCCCC(=O)O [prostaglandin E1]	Minimal, but statistically insignificant improvements	Minimal, but statistically insignificant improvements
